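Method: 48-hour compound exposure of cells in 96-well plates, five concentrations, linear interpolation of endpoints. Here, GI50 denotes the concentration required for 50% inhibition of growth. TGI is the concentration that stops growth completely.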
Columns and labels:
Assay in all cases: NCI anticancer screen, dose series, 48 h
U251 CNS = test system: U251 CNS
ACHN renal = test system: ACHN renal
UACC-257 melanoma = test system: UACC-257 melanoma
HCC-2998 colon = test system: HCC-2998 colon
CAKI-1 renal = test system: CAKI-1 renal
786-0 renal = test system: 786-0 renal
LOX IMVI melanoma = test system: LOX IMVI melanoma
HCT-116 colon = test system: HCT-116 colon
MDA-MB-231 breast = test system: MDA-MB-231 breast
SR leukemia = test system: SR leukemia

Row | Structure (SMILES) | GI50 (U251 CNS) [µM] | TGI (U251 CNS) [µM] | GI50 (ACHN renal) [µM] | TGI (ACHN renal) [µM] | GI50 (UACC-257 melanoma) [µM] | TGI (UACC-257 melanoma) [µM] | GI50 (HCC-2998 colon) [µM] | TGI (HCC-2998 colon) [µM] | GI50 (CAKI-1 renal) [µM] | TGI (CAKI-1 renal) [µM] | GI50 (786-0 renal) [µM] | TGI (786-0 renal) [µM] | GI50 (LOX IMVI melanoma) [µM] | TGI (LOX IMVI melanoma) [µM] | GI50 (HCT-116 colon) [µM] | TGI (HCT-116 colon) [µM] | GI50 (MDA-MB-231 breast) [µM] | TGI (MDA-MB-231 breast) [µM] | GI50 (SR leukemia) [µM] | TGI (SR leukemia) [µM]
1 | C=CCC(N[C@@H](CO)c1ccccc1)c1cn(Cc2ccccc2Cl)c(=O)n(Cc2ccccc2Cl)c1=O (some centres not stated) | > 100 | > 100 | > 100 | > 100 | > 100 | > 100 | > 100 | > 100 | 73.6 | > 100 | > 100 | > 100 | > 100 | > 100 | 87.3 | > 100 | 78 | > 100 | > 100 | > 100
2 | O=C1/C(=C\c2ccc(F)cc2)CN(C(=O)c2ccccc2)C/C1=C\c1ccc(F)cc1 | 1.65 | 3.76 | 1.75 | 3.77 | 2.41 | 8.52 | 2.62 | 6.98 | 2.82 | 66.2 | 1.83 | 4.25 | 1.41 | 3.18 | 0.428 | 1.71 | 2.27 | 6.39 | 0.484 | 26.8
3 | CC(C)(C)N1CCC1CN (configuration not stated) | > 100 | > 100 | > 100 | > 100 | > 100 | > 100 | > 100 | > 100 | > 100 | > 100 | > 100 | > 100 | > 100 | > 100 | > 100 | > 100 | > 100 | > 100 | > 100 | > 100
4 | CCOC(=O)c1ccc(Nc2sc(C(=O)c3ccc(Br)cc3)c(N)c2C#N)cc1 | 1.49 | > 100 | 3.24 | > 100 | 6.19 | > 100 | > 100 | > 100 | 1.73 | > 100 | 1.99 | > 100 | 1.64 | > 100 | 0.732 | > 100 | 2.92 | > 100 | 0.658 | > 45.5
5 | CN(C)c1ccc(/C=C/c2ccnc3c(O)cccc23)cc1 | 0.338 | > 100 | 0.337 | > 100 | 0.409 | 3.08 | 2.09 | > 100 | 0.401 | > 74.4 | 0.886 | > 26.2 | 0.313 | > 100 | 0.401 | > 100 | 0.434 | > 100 | 0.321 | > 100
6 | COc1ccc(C(=O)Nc2ncc(Cc3cccc(Cl)c3)s2)cc1OC | 0.505 | > 100 | 0.0812 | > 100 | 0.566 | > 100 | 0.134 | > 44.1 | 0.309 | > 100 | 1.33 | > 100 | 0.0197 | > 100 | 0.0769 | > 100 | 1.77 | > 100 | 0.164 | > 100
7 | O=C(O)/C=C/C(=O)N1Cc2cc3ccccc3nc2C1 | – | > 100 | – | > 100 | – | > 100 | – | > 100 | – | > 100 | – | > 100 | – | > 100 | – | > 100 | – | > 100 | – | > 100
8 | Cc1c(O)c2ccccc2oc1=O | – | > 100 | – | > 100 | – | > 100 | – | > 100 | – | > 100 | – | > 100 | – | > 100 | – | > 100 | – | > 100 | – | > 100
9 | Cn1cc(C2=C(c3ccccc3[N+](=O)[O-])C(=O)NC2=O)c2ccccc21 | 1.77 | > 25 | 1.65 | > 23.4 | 7.11 | 17.7 | 7.79 | > 23.7 | 3.87 | > 20.8 | 3.2 | > 25 | 3.13 | > 25 | 1.38 | > 25 | 4.72 | 19.6 | 2.33 | 12.9
10 | CC(C)N1CC2CN(Cc3ccccc3)CC(C1)C2=O | – | > 100 | – | > 100 | – | > 100 | – | > 100 | – | > 100 | – | > 100 | – | > 100 | – | > 100 | – | > 100 | – | > 100
11 | CN1CCC(COc2cnc(-c3cccc(Cn4nc(-c5cccc(C#N)c5)ccc4=O)c3)nc2)CC1 | 2.43 | 7.68 | 2.38 | 5.78 | 1.81 | 3.52 | 6.34 | 18.7 | 3.15 | 13.8 | 1.97 | 3.86 | 1.93 | 4.09 | 2.41 | 6.35 | 2 | 4.43 | 2.08 | 4.49
12 | CSC1=Nc2c(c(C)c(-c3ccccc3)n2CCCN2CCCCC2)C2=NC(=O)C[C@H](C)N12 | 2.71 | 17.7 | 4.78 | 43.8 | 4.37 | 27.5 | 3.18 | 12.7 | 12.1 | 44.5 | 4.48 | 36.5 | 3.16 | 13.4 | 2.71 | > 44.6 | 2.59 | > 30.9 | 16.7 | > 100
13 | CCOC(=O)[C@@H](C)C[C@H](Cc1ccccc1)NC(=O)c1nc([C@@H](C[C@H](C(C)C)N(C)C(=O)[C@@H](NC(=O)[C@H]2CCCCN2C)C(C)C)OC(C)=O)sc1CCOCc1ccccc1 | 0.0716 | 1.62 | 0.117 | 3.06 | 1.51 | 4.19 | 0.119 | 1.13 | 0.128 | 2.18 | 0.08 | 1.59 | 0.0609 | 1.54 | 0.0473 | 1.23 | 0.175 | 1.02 | 0.0313 | 1.87
14 | O=c1cc(-c2ccccc2)oc2ccc(OC/C(=N/O)c3ccccc3)cc12 | 2.35 | > 50 | – | – | 5.12 | > 50 | 11 | > 50 | 1.79 | 16.2 | 8.92 | > 50 | 2.76 | 20.2 | 3.11 | > 50 | 2.63 | > 50 | 1.73 | > 50
15 | CCC(CC)c1nc(Nc2ccc(C(=O)OC)cc2)c2ccccc2n1 | 8.5 | 19 | 8.1 | 18.1 | 9.73 | 20 | 8.66 | 17.1 | 5.74 | 11.8 | 10.9 | 26.5 | 11.1 | 31.7 | 12.9 | > 28.6 | 8.59 | 22.8 | 10.1 | 26.7
16 | Cc1ccc(Cl)cc1Nc1nc(C(F)(F)F)ccc1C(=O)N/N=C/c1cccnc1 | 2.14 | 11.7 | 3.63 | 13.1 | 3.15 | 10.1 | 2.03 | 11.1 | 2.14 | 9.02 | 2.11 | 11.4 | 1.52 | 13.6 | 2.34 | 14.4 | 2.08 | 17.4 | 0.148 | –
17 | COc1ccc(/C=C(/C(=O)N2CCN(c3ccccc3)CC2)c2cc(OC)c(OC)c(OC)c2)cc1N | 0.361 | > 100 | 0.612 | > 100 | 3.65 | > 100 | 0.556 | > 100 | – | – | 0.766 | > 100 | 0.696 | > 100 | 0.356 | > 100 | 0.411 | 24.4 | 0.409 | > 100
18 | COC(=O)[C@@H](C)C[C@H](Cc1cn(C)c2ccccc12)NC(=O)c1csc([C@@H](C[C@H](C(C)C)N(C)C(=O)[C@@H](NC(=O)[C@H]2CCCCN2C)C(C)C)OC(C)=O)n1 | 0.0102 | > 16.7 | 0.153 | > 16.7 | > 16.7 | > 16.7 | 0.0925 | > 16.7 | – | – | 0.0545 | > 13 | 0.011 | > 16.7 | 0.00707 | > 16.7 | 0.0239 | 0.966 | 0.00298 | > 16.7
19 | CCN(CC)CCNc1ccc(C)c2sc3cc(Cl)ccc3c(=O)c12 | 1.73 | 3.22 | – | – | 1.92 | 3.42 | 1.75 | 3.58 | – | – | 1.66 | 3.1 | 1.58 | 3.01 | 1.65 | 3.15 | 1.41 | 2.93 | 1.6 | 3.57
20 | CSc1ccc(-c2ccccc(=O)c2O)cc1 | 0.568 | 24.6 | 0.397 | 71.1 | 0.749 | > 100 | 0.594 | > 100 | – | – | 0.447 | 12.6 | 0.336 | 17.1 | 0.506 | 37.4 | 0.603 | > 100 | 0.404 | 14.5
